According to US20060252807A1, “Novel ortho-terphenyl inhibitors of p38 kinase and methods of treating inflammatory disorders” (Kalypsys, Inc., priority 2005, published 2006):
pIC50: −log10 of the molar value.

Target: T1, active p38 alpha enzyme (Upstate Biotechnology) (Homo sapiens, UniProt Q16539)
T1 construct: purchased Upstate Biotechnology
Assay: p38α biochemical assay (ATP turnover, luminescent detection, Cambrex PKlight)
Conditions: p38α kinase; Table 1 Biological Activity
Summary of the method: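 Luminescent ATP-depletion readout measures total ATP turnover by p38α phosphorylating whole MapkapK2 protein. ATP 1.4 uM final; 30C, 2 h. Compounds delivered from DMSO.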

T1 sequence (Q16539 whole entry): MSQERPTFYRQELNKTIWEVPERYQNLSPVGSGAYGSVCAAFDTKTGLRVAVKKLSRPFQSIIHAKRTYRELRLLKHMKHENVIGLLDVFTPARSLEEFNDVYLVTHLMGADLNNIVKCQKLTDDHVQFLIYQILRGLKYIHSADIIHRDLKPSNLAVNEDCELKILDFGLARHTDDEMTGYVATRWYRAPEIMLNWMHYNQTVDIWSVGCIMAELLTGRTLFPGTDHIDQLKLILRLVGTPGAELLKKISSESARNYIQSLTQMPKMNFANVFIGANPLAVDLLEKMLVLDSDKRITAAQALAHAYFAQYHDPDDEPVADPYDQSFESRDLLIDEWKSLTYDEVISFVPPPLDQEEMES

Question: How did the pIC50 turn out when Cc1cccc(CNC(=O)c2csc(-c3c(-c4ccc(F)cc4)n[nH]c3C3CCNCC3)n2)c1 [Example 2073] was run?
Answer: Its pIC50 is under 6.00.

Question: C[C@H](NC(=O)c1csc(-c2c(-c3ccc(F)cc3)n[nH]c2C2CCNCC2)n1)c1ccccc1 [Example 2074] was tested. Which pIC50 did it give?
Answer: The pIC50 was under 6.00.

Question: With C[C@@H](NC(=O)c1csc(-c2c(-c3ccc(F)cc3)n[nH]c2C2CCNCC2)n1)c1ccccc1 [Example 2075] as the compound, how does the pIC50 read?
Answer: Its pIC50 is under 6.00.

Question: With O=C(NCCc1ccccc1)c1csc(-c2c(-c3ccc(F)cc3)n[nH]c2C2CCNCC2)n1 [Example 2076] as the compound, how does the pIC50 read?
Answer: Its pIC50 is under 6.00.

Question: Cc1ccccc1CNC(=O)c1csc(-c2c(-c3ccc(F)cc3)n[nH]c2C2CCNCC2)n1 [Example 2077] was tested. Which pIC50 did it give?
Answer: The pIC50 was under 6.00.

Question: With Cc1ccc(CNC(=O)c2csc(-c3c(-c4ccc(F)cc4)n[nH]c3C3CCNCC3)n2)cc1 [Example 2078] as the compound, how does the pIC50 read?
Answer: Its pIC50 is under 6.00.

Question: With Cc1cnc(CNC(=O)c2csc(-c3c(-c4ccc(F)cc4)n[nH]c3C3CCNCC3)n2)cn1 [Example 2079] as the compound, how does the pIC50 read?
Answer: The pIC50 was under 6.00.

Question: How did the pIC50 turn out when O=C(NCc1cccc(F)c1)c1csc(-c2c(-c3ccc(F)cc3)n[nH]c2C2CCNCC2)n1 [Example 2080] was run?
Answer: The pIC50 was under 6.00.

Question: How did the pIC50 turn out when O=C(NCc1ccc(F)cc1)c1csc(-c2c(-c3ccc(F)cc3)n[nH]c2C2CCNCC2)n1 [Example 2081] was run?
Answer: Its pIC50 is under 6.00.

Question: With O=C(NCc1ccccc1F)c1csc(-c2c(-c3ccc(F)cc3)n[nH]c2C2CCNCC2)n1 [Example 2082] as the compound, how does the pIC50 read?
Answer: Its pIC50 is at least 6.00.

Question: How did the pIC50 turn out when O=C(NCCCn1ccnc1)c1csc(-c2c(-c3ccc(F)cc3)n[nH]c2C2CCNCC2)n1 [Example 2083] was run?
Answer: The pIC50 was under 6.00.

Question: CN1CCCC1CCNC(=O)c1csc(-c2c(-c3ccc(F)cc3)n[nH]c2C2CCNCC2)n1 (centres unmarked) [Example 2084] was tested. Which pIC50 did it give?
Answer: Its pIC50 is under 6.00.

Question: How did the pIC50 turn out when O=C(NCCN1CCCCC1)c1csc(-c2c(-c3ccc(F)cc3)n[nH]c2C2CCNCC2)n1 [Example 2085] was run?
Answer: The pIC50 was under 6.00.

Question: CC(C)CCCC(C)NC(=O)c1csc(-c2c(-c3ccc(F)cc3)n[nH]c2C2CCNCC2)n1 (centres unmarked) [Example 2086] was tested. Which pIC50 did it give?
Answer: Its pIC50 is under 6.00.

Question: With O=C(NCCN1CCOCC1)c1csc(-c2c(-c3ccc(F)cc3)n[nH]c2C2CCNCC2)n1 [Example 2087] as the compound, how does the pIC50 read?
Answer: Its pIC50 is under 6.00.

Question: With CCOC(=O)CC(C)NC(=O)c1csc(-c2c(-c3ccc(F)cc3)n[nH]c2C2CCNCC2)n1 (centres unmarked) [Example 2088] as the compound, how does the pIC50 read?
Answer: The pIC50 was under 6.00.

Question: O=C(NC1CCc2ccccc21)c1csc(-c2c(-c3ccc(F)cc3)n[nH]c2C2CCNCC2)n1 (centres unmarked) [Example 2089] was tested. Which pIC50 did it give?
Answer: Its pIC50 is under 6.00.

Question: How did the pIC50 turn out when Cc1ccc(CCNC(=O)c2csc(-c3c(-c4ccc(F)cc4)n[nH]c3C3CCNCC3)n2)cc1 [Example 2090] was run?
Answer: The pIC50 was under 6.00.

Question: Cc1ccc(C)c(CNC(=O)c2csc(-c3c(-c4ccc(F)cc4)n[nH]c3C3CCNCC3)n2)c1 [Example 2091] was tested. Which pIC50 did it give?
Answer: Its pIC50 is under 6.00.

Question: Cc1ccc([C@H](C)NC(=O)c2csc(-c3c(-c4ccc(F)cc4)n[nH]c3C3CCNCC3)n2)cc1 [Example 2092] was tested. Which pIC50 did it give?
Answer: The pIC50 was under 6.00.

Question: With Cc1ccc([C@@H](C)NC(=O)c2csc(-c3c(-c4ccc(F)cc4)n[nH]c3C3CCNCC3)n2)cc1 [Example 2093] as the compound, how does the pIC50 read?
Answer: Its pIC50 is under 6.00.

Question: CC(CNC(=O)c1csc(-c2c(-c3ccc(F)cc3)n[nH]c2C2CCNCC2)n1)c1ccccc1 (centres unmarked) [Example 2094] was tested. Which pIC50 did it give?
Answer: The pIC50 was under 6.00.

Question: With CC(CNC(=O)c1csc(-c2c(-c3ccc(F)cc3)n[nH]c2C2CCNCC2)n1)c1ccccc1 (centres unmarked) [Example 2095] as the compound, how does the pIC50 read?
Answer: The pIC50 was under 6.00.

Question: How did the pIC50 turn out when O=C(NCCCc1ccccc1)c1csc(-c2c(-c3ccc(F)cc3)n[nH]c2C2CCNCC2)n1 [Example 2096] was run?
Answer: The pIC50 was under 6.00.

Question: Cc1ccc(CNC(=O)c2csc(-c3c(-c4ccc(F)cc4)n[nH]c3C3CCNCC3)n2)cc1C [Example 2097] was tested. Which pIC50 did it give?
Answer: Its pIC50 is under 6.00.

Question: How did the pIC50 turn out when CC(Cc1ccncc1)NC(=O)c1csc(-c2c(-c3ccc(F)cc3)n[nH]c2C2CCNCC2)n1 (centres unmarked) [Example 2098] was run?
Answer: The pIC50 was under 6.00.

Question: How did the pIC50 turn out when O=C(NCCc1ccc(O)cc1)c1csc(-c2c(-c3ccc(F)cc3)n[nH]c2C2CCNCC2)n1 [Example 2099] was run?
Answer: Its pIC50 is under 6.00.

Question: O=C(NCCOc1ccccc1)c1csc(-c2c(-c3ccc(F)cc3)n[nH]c2C2CCNCC2)n1 [Example 2100] was tested. Which pIC50 did it give?
Answer: The pIC50 was under 6.00.

Question: COc1ccccc1CNC(=O)c1csc(-c2c(-c3ccc(F)cc3)n[nH]c2C2CCNCC2)n1 [Example 2101] was tested. Which pIC50 did it give?
Answer: The pIC50 was under 6.00.

Question: With COc1ccc(CNC(=O)c2csc(-c3c(-c4ccc(F)cc4)n[nH]c3C3CCNCC3)n2)cc1 [Example 2102] as the compound, how does the pIC50 read?
Answer: Its pIC50 is at least 6.00.

Question: COc1cccc(CNC(=O)c2csc(-c3c(-c4ccc(F)cc4)n[nH]c3C3CCNCC3)n2)c1 [Example 2103] was tested. Which pIC50 did it give?
Answer: Its pIC50 is under 6.00.

Question: With O=C(NCCc1ccc(F)cc1)c1csc(-c2c(-c3ccc(F)cc3)n[nH]c2C2CCNCC2)n1 [Example 2104] as the compound, how does the pIC50 read?
Answer: The pIC50 was under 6.00.

Question: With O=C(NCCc1ccccc1F)c1csc(-c2c(-c3ccc(F)cc3)n[nH]c2C2CCNCC2)n1 [Example 2105] as the compound, how does the pIC50 read?
Answer: Its pIC50 is under 6.00.

Question: With O=C(NCCc1cccc(F)c1)c1csc(-c2c(-c3ccc(F)cc3)n[nH]c2C2CCNCC2)n1 [Example 2106] as the compound, how does the pIC50 read?
Answer: The pIC50 was under 6.00.

Question: How did the pIC50 turn out when O=C(NCc1cccc(Cl)c1)c1csc(-c2c(-c3ccc(F)cc3)n[nH]c2C2CCNCC2)n1 [Example 2107] was run?
Answer: Its pIC50 is under 6.00.

Question: O=C(NCc1ccccc1Cl)c1csc(-c2c(-c3ccc(F)cc3)n[nH]c2C2CCNCC2)n1 [Example 2108] was tested. Which pIC50 did it give?
Answer: Its pIC50 is under 6.00.

Question: O=C(NCc1ccc(Cl)cc1)c1csc(-c2c(-c3ccc(F)cc3)n[nH]c2C2CCNCC2)n1 [Example 2109] was tested. Which pIC50 did it give?
Answer: Its pIC50 is under 6.00.

Question: How did the pIC50 turn out when O=C(NCCCN1CCCC1=O)c1csc(-c2c(-c3ccc(F)cc3)n[nH]c2C2CCNCC2)n1 [Example 2110] was run?
Answer: The pIC50 was under 6.00.

Question: With O=C(NCc1ccc(F)cc1F)c1csc(-c2c(-c3ccc(F)cc3)n[nH]c2C2CCNCC2)n1 [Example 2111] as the compound, how does the pIC50 read?
Answer: Its pIC50 is under 6.00.

Question: O=C(NCc1ccc(F)c(F)c1)c1csc(-c2c(-c3ccc(F)cc3)n[nH]c2C2CCNCC2)n1 [Example 2112] was tested. Which pIC50 did it give?
Answer: The pIC50 was under 6.00.

Question: O=C(NCc1cc(F)cc(F)c1)c1csc(-c2c(-c3ccc(F)cc3)n[nH]c2C2CCNCC2)n1 [Example 2113] was tested. Which pIC50 did it give?
Answer: The pIC50 was under 6.00.

Question: How did the pIC50 turn out when O=C(NCCCN1CCOCC1)c1csc(-c2c(-c3ccc(F)cc3)n[nH]c2C2CCNCC2)n1 [Example 2114] was run?
Answer: Its pIC50 is under 6.00.

Question: With CC(C)N(CCNC(=O)c1csc(-c2c(-c3ccc(F)cc3)n[nH]c2C2CCNCC2)n1)C(C)C [Example 2115] as the compound, how does the pIC50 read?
Answer: The pIC50 was under 6.00.

Question: With O=C(NC1CCCc2ccccc21)c1csc(-c2c(-c3ccc(F)cc3)n[nH]c2C2CCNCC2)n1 (centres unmarked) [Example 2116] as the compound, how does the pIC50 read?
Answer: The pIC50 was under 6.00.

Question: With CC(CCc1ccccc1)NC(=O)c1csc(-c2c(-c3ccc(F)cc3)n[nH]c2C2CCNCC2)n1 (centres unmarked) [Example 2117] as the compound, how does the pIC50 read?
Answer: Its pIC50 is under 6.00.

Question: With CC(C)c1ccc(CNC(=O)c2csc(-c3c(-c4ccc(F)cc4)n[nH]c3C3CCNCC3)n2)cc1 [Example 2118] as the compound, how does the pIC50 read?
Answer: The pIC50 was under 6.00.

Question: With O=C(NCc1ccc2c(c1)OCO2)c1csc(-c2c(-c3ccc(F)cc3)n[nH]c2C2CCNCC2)n1 [Example 2119] as the compound, how does the pIC50 read?
Answer: Its pIC50 is under 6.00.

Question: With COc1cccc(CCNC(=O)c2csc(-c3c(-c4ccc(F)cc4)n[nH]c3C3CCNCC3)n2)c1 [Example 2120] as the compound, how does the pIC50 read?
Answer: Its pIC50 is under 6.00.

Question: With O=C(N[C@H](CO)Cc1ccccc1)c1csc(-c2c(-c3ccc(F)cc3)n[nH]c2C2CCNCC2)n1 [Example 2121] as the compound, how does the pIC50 read?
Answer: Its pIC50 is under 6.00.

Question: How did the pIC50 turn out when COc1ccc(CCNC(=O)c2csc(-c3c(-c4ccc(F)cc4)n[nH]c3C3CCNCC3)n2)cc1 [Example 2122] was run?
Answer: The pIC50 was under 6.00.

Question: With COc1ccccc1CCNC(=O)c1csc(-c2c(-c3ccc(F)cc3)n[nH]c2C2CCNCC2)n1 [Example 2123] as the compound, how does the pIC50 read?
Answer: Its pIC50 is under 6.00.

Question: With CCOc1ccccc1CNC(=O)c1csc(-c2c(-c3ccc(F)cc3)n[nH]c2C2CCNCC2)n1 [Example 2124] as the compound, how does the pIC50 read?
Answer: The pIC50 was under 6.00.

Question: COc1ccc(NC(=O)c2csc(-c3c(-c4ccc(F)cc4)n[nH]c3C3CCNCC3)n2)cc1OC [Example 2125] was tested. Which pIC50 did it give?
Answer: Its pIC50 is under 6.00.
